Laboratory results published in PMC9228270, “Design, Synthesis, In Silico Studies and Inhibitory Activity towards Bcr-Abl, BTK and FLT3-ITD of New 2,6,9-Trisubstituted Purine Derivatives as Potential Agents for the Treatment of Leukaemia” (Pharmaceutics, 2022).
Values joined by “and” are separate entries in the source; they are usually repeats but may differ in a detail not shown here. Equal values may be shown once. Read-outs that look alike come from different tables or passages of the source.

How the values were obtained:
[1] = target: T1, FLT3-ITD (Homo sapiens, UniProt P36888, ITD); experiment: Recombinant kinase radioassay, FLT3-ITD; assay type: biochemical
T1 sequence (P36888 27-993): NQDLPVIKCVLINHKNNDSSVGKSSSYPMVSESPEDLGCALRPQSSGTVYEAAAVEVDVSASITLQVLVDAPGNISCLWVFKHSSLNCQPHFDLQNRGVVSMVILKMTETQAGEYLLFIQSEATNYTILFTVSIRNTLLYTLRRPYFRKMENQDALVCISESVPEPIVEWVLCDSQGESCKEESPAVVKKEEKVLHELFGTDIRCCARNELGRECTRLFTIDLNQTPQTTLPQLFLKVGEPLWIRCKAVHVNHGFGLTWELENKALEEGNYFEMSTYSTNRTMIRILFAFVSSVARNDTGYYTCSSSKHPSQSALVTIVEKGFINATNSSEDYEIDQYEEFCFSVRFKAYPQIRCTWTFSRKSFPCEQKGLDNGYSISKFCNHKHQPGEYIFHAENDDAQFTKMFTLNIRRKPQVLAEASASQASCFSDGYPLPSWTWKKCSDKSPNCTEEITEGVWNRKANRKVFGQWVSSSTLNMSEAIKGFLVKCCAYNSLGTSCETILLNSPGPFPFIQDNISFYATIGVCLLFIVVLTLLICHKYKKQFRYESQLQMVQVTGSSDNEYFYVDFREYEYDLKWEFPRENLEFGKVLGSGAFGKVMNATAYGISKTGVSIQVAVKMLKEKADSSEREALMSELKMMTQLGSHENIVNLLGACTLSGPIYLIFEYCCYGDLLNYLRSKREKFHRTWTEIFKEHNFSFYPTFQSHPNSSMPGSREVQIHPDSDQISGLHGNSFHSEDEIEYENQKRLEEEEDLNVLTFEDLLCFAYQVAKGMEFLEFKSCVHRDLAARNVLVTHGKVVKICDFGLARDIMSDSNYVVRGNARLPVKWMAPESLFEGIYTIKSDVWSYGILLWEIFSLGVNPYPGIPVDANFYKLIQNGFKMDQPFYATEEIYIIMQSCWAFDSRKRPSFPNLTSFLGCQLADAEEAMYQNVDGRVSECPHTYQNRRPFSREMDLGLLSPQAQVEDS
Experimental: (§1) Recombinant kinase inhibition was measured using standard radioassay. Bcr-Abl1 and Cdk-2/cyclin E kinases were produced in-house, FLT3-ITD and BTK were purchased from ProQinase. The kinases were assayed with suitable substrates (500 µM peptide […] for Abl, 1 mg/mL histone H1 for Cdk-2, 100 µM poly (Glu:Tyr; 4:1)) in the presence of ATP (1 µM for Bcr-Abl, 15 µM for Cdk-2 and BTK), 0.05 µCi [γ-^33P]ATP and the test compound in reaction buffer (60 mM HEPES-NaOH, pH 7.5, 3 mM MgCl2, 3 mM MnCl2, 3 µM Na orthovanadate, 1.2 mM DTT, 2.5 µg/50 µL PEG20.000). The reactions were stopped by adding 3% aq. H3PO4. P-81 phosphocellulose (Whatman) was used to separate phosphorylated substrates. Kinase activity was quantified using a FLA-7000 digital image analyser.

[2] = target: T2, Cdk-2/cyclin E (Homo sapiens, UniProt P24941); experiment: Recombinant kinase radioassay, Cdk-2/cyclin E; assay type: biochemical; conditions: ATP 15 µM, at least three independent experiments, range 0.01–100 µM
T2 construct: made in house
Experimental: as §1

[3] = target: Bcr-Abl1 (Homo sapiens, UniProt P00519); experiment: Recombinant kinase radioassay, Abl; assay type: biochemical; conditions: ATP 1 µM, at least three independent experiments, range 0.01–100 µM
Experimental: as §1

[4] = test system: K562; experiment: Cytotoxicity assay (resazurin), K562; assay type: cell-based; conditions: Homo sapiens, 72 h, three independent experiments, range 0.1 to 25 µM
Experimental: (§2) Cytotoxicity assays for the purines were quantified using the resazurin method, a dye to measure redox reactions occurring in the mitochondria of live cells. The cells were treated by tested compounds (in triplicate, six different doses) for 72 h.

[5] = target: T3, BTK (Homo sapiens, UniProt Q06187); experiment: Recombinant kinase radioassay, BTK; assay type: biochemical
T3 construct: purchased ProQinase
Experimental: as §1

[6] = test system: MV4-11; experiment: Cytotoxicity assay (resazurin), MV4-11; assay type: cell-based; conditions: Homo sapiens, 72 h, three independent experiments, range 0.1 to 25 µM
Experimental: as §2

[7] = test system: CEM; experiment: Cytotoxicity assay (resazurin), CEM; assay type: cell-based; conditions: Homo sapiens, CCRF-CEM, 72 h, three independent experiments, range 0.1 to 25 µM
Experimental: as §2

[8] = test system: HL-60; experiment: Cytotoxicity assay (resazurin), HL-60; assay type: cell-based; conditions: Homo sapiens, 72 h, three independent experiments, range 0.1 to 25 µM
Experimental: as §2

[9] = test system: Ramos; experiment: Cytotoxicity assay (resazurin), Ramos; assay type: cell-based; conditions: Homo sapiens, 72 h, three independent experiments, range 0.1 to 25 µM
Experimental: as §2

[10] = recombinant kinase, radioassay, at least three independent experiments, range 0.01–100 µM, read-out: IC50 FLT3-ITD
[11] = recombinant kinase, radioassay, ATP 15 µM, at least three independent experiments, range 0.01–100 µM, read-out: IC50 BTK

Chain of Bcr-Abl1 (P00519 27-1130): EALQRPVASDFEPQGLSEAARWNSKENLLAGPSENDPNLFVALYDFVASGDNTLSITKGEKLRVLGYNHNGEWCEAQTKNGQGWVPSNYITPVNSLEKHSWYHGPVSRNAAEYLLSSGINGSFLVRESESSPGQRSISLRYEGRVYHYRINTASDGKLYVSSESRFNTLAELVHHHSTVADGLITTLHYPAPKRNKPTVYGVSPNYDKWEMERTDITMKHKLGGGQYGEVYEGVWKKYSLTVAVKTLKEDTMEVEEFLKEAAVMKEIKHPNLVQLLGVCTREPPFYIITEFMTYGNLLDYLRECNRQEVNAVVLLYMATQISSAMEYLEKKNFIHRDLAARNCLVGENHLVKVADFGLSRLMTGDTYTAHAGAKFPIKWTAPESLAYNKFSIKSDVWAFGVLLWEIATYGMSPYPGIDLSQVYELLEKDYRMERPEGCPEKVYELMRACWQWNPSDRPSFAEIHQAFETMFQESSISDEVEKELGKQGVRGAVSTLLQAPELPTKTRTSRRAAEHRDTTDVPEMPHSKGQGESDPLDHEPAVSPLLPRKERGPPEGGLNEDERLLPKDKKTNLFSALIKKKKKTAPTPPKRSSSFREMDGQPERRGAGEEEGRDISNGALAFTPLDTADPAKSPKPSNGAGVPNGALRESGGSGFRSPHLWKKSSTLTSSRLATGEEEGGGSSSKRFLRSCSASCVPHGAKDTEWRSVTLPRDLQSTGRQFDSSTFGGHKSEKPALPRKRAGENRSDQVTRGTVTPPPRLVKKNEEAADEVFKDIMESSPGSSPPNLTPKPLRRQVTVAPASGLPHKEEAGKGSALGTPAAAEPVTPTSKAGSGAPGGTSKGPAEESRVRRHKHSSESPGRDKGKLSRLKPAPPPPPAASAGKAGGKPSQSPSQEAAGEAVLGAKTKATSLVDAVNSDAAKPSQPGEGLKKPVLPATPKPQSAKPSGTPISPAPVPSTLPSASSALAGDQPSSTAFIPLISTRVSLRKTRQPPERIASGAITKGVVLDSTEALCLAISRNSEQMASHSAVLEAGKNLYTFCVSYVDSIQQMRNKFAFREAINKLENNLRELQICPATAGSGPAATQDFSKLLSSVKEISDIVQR
T3 sequence (Q06187 whole entry): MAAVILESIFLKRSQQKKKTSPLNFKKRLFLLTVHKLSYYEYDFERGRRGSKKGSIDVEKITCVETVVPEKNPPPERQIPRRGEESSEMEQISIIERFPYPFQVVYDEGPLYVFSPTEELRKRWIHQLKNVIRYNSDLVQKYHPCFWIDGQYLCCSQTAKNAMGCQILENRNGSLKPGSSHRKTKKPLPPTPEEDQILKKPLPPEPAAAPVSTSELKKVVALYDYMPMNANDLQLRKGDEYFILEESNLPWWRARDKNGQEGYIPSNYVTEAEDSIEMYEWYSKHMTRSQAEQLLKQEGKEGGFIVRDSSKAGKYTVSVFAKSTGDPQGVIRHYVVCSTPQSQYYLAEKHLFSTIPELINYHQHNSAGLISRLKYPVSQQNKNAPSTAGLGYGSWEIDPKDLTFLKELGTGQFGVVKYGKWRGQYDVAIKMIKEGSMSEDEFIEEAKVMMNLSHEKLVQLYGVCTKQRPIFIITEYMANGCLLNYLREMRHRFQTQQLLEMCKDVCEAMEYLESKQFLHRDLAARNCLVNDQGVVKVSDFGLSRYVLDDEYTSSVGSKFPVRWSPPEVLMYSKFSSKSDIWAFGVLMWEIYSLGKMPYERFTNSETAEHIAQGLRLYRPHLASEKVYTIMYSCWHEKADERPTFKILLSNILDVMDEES

IC50 [1, 10] [µM]	IC50 [2] [µM]	IC50 [3] [µM]	IC50 [5, 11]	melting point [°C]	IC50 ([1]; -log IC50 in molar concentration, Table S3, read-out: Experimental pIC50, CoMFA FLT3 (converted)) [µM]	IC50 ([5]; -log IC50 in molar concentration, Table S3, read-out: Experimental pIC50, CoMFA BTK (converted)) [µM]	Structure (SMILES)	GI50 [4] [µM]	GI50 [6] [µM]	GI50 [7] [µM]	GI50 [8] [µM]	GI50 [9] [µM]
2.31	80.8 ± 12.5	> 100	0.32 ± 0.01 µM	147.1 to 149.9	–	–	CCCCCCn1cnc2c(Nc3cccc(F)c3)nc(Nc3ccc(N4CCN(C)CC4)cc3)nc21 [Compound 5h, N^6-(3-Fluorophenyl)-9-hexyl-N^2-(4-(4-methylpiperazin-1-yl)phenyl)-9H-purine-2,6-diamine]	24.7 ± 0.41	3.54 ± 1.53	> 25	8.77 ± 3.84	> 25
0.5	19 ± 8.98	0.65 ± 0.07	< 0.58 µM and 0.36 µM	147.1 to 149.3	–	–	CCCCCn1cnc2c(Nc3cccc(F)c3)nc(Nc3ccc(N4CCN(C)CC4)cc3)nc21 [Compound 5e, N^6-(3-Fluorophenyl)-N^2-(4-(4-methylpiperazin-1-yl)phenyl)-9-pentyl-9H-purine-2,6-diamine]	2.14 ± 0.8	1.31 ± 0.71	19 ± 3.89	1.31	11.6 ± 1.46
1.91	27.9 ± 1.04	9.82 ± 1.87	0.91 ± 0.02 µM	155.8 to 160	–	–	CCCCCCn1cnc2c(Nc3ccccc3)nc(Nc3ccc(N4CCN(C)CC4)cc3)nc21 [Compound 5g, 9-Hexyl-N^2-(4-(4-methylpiperazin-1-yl)phenyl)-N^6-phenyl-9H-purine-2,6-diamine]	15.5 ± 4.98	4.27 ± 1.45	34.7 ± 1.37	6.11 ± 0.76	22.5 ± 1.23

The next lines start with the compound.

Structure (SMILES)	IC50 [1, 10] [µM]	IC50 [2] [µM]	IC50 [3] [µM]	IC50 [5, 11]	melting point [°C]	IC50 ([1]; -log IC50 in molar concentration, Table S3, read-out: Experimental pIC50, CoMFA FLT3 (converted)) [µM]	IC50 ([5]; -log IC50 in molar concentration, Table S3, read-out: Experimental pIC50, CoMFA BTK (converted)) [µM]	GI50 [4] [µM]	GI50 [6] [µM]	GI50 [7] [µM]	GI50 [8] [µM]	GI50 [9] [µM]
CN1CCN(c2ccc(Nc3nc(Nc4ccc(Cl)c(Cl)c4)c4ncn(CC5CC5)c4n3)cc2)CC1 [Compound 4n, 9-(Cyclopropylmethyl)-N^6-(3,4-dichlorophenyl)-N^2-(4-(4-methylpiperazin-1-yl)phenyl)-9H-purine-2,6-diamine]	2.53	12.9 ± 1.7	0.07 ± 0.01	3.9 ± 0.05 µM	132 to 133	–	–	5.54 ± 1.56	4.81 ± 1.54	17.54 ± 0.08	1.52 ± 0.34	8.02 ± 1.3
Cc1cccc(Nc2nc(Nc3ccc(N4CCN(C)CC4)cc3)nc3c2ncn3CC2CC2)c1 [Compound 4c, 9-(Cyclopropylmethyl)-N^2-(4-(4-methylpiperazin-1-yl)phenyl)-N^6-(m-tolyl)-9H-purine-2,6-diamine]	1.5	22.9 ± 2.08	0.1	1.3 ± 0.02 µM	135 to 137	–	–	2.86 ± 0.76	1.42 ± 0.23	16.4 ± 0.36	9.79 ± 0.87	12.5 ± 0.48
CN1CCN(c2ccc(Nc3nc(Nc4ccc([N+](=O)[O-])cc4)c4ncn(CC5CC5)c4n3)cc2)CC1 [Compound 4j, 9-(Cyclopropylmethyl)-N^2-(4-(4-methylpiperazin-1-yl)phenyl)-N^6-(4-nitrophenyl)-9H-purine-2,6-diamine]	0.53	23.8 ± 6.05	0.54 ± 0.02	0.94 ± 0.04 µM	162 to 163	–	–	2.84 ± 1.04	2.21 ± 0.71	2.52 ± 0.29	0.42 ± 0.08	1.3 ± 0.5
CN1CCN(c2ccc(Nc3nc(Nc4ccc(F)c(Cl)c4)c4ncn(CC5CC5)c4n3)cc2)CC1 [Compound 4m, N^6-(3-Chloro-4-fluorophenyl)-9-(cyclopropylmethyl)-N^2-(4-(4-methylpiperazin-1-yl)phenyl)-9H-purine-2,6-diamine]	1.54	10.8 ± 3.84	0.27 ± 0.05	2.39 ± 0.43 µM	153 to 155	–	–	2.57 ± 0.52	1.88 ± 0.06	13.3 ± 1.58	0.86 ± 0.11	7.52 ± 0.41
CN1CCN(c2ccc(Nc3nc(Nc4cccc(OC(F)(F)F)c4)c4ncn(CC5CC5)c4n3)cc2)CC1 [Compound 4e, 9-(Cyclopropylmethyl)-N^2-(4-(4-methylpiperazin-1-yl)phenyl)-N^6-(3-(trifluoromethoxy)phenyl)-9H-purine-2,6-diamine]	2.32	47.7 ± 19.4	0.42 ± 0.1	4.12 ± 0.9 µM	161 to 162	–	–	5.18 ± 1.68	2.88 ± 0.01	19.5 ± 0.61	1.4 ± 0.13	12.84 ± 0.03
CN1CCN(c2ccc(Nc3nc(Nc4ccc(OC(F)(F)F)c([N+](=O)[O-])c4)c4ncn(CC5CC5)c4n3)cc2)CC1 [Compound 4o, 9-(Cyclopropylmethyl)-N^2-(4-(4-methylpiperazin-1-yl)phenyl)-N^6-(3-nitro-4-(trifluoromethoxy)phenyl)-9H-purine-2,6-diamine]	2.67	12.6 ± 2.12	0.44 ± 0.12	5.03 ± 0.99 µM	144 to 145	–	–	2.6 ± 1.25	1.49 ± 0.33	14.8 ± 1.32	1.68 ± 0.01	4.46 ± 0.38
CN1CCN(c2ccc(Nc3nc(Nc4cccc(C(F)(F)F)c4)c4ncn(CC5CC5)c4n3)cc2)CC1 [Compound 4d, 9-(Cyclopropylmethyl)-N^2-(4-(4-methylpiperazin-1-yl)phenyl)-N^6-(3-(trifluoromethyl)phenyl)-9H-purine-2,6-diamine]	1.8	15.5 ± 1.7	1.78 ± 0.07	22.7 ± 2.88 µM	134 to 135	–	–	4.51 ± 0.36	2.84 ± 0.29	23.78 ± 0.08	0.72 ± 0.16	3.83 ± 0.1
CN1CCN(c2ccc(Nc3nc(Nc4ccccc4)c4ccn(CC5CC5)c4n3)cc2)CC1 [Compound 12, 7-(Cyclopropylmethyl)-N^2-(4-(4-Methylpiperazin-1-yl)Phenyl)-N^4-Phenyl-7H-pyrrolo[2,3-d]Pyrimidine-2,4-Diamine]	> 20	46.2 ± 1.49	62.3 ± 12.1	> 20 µM	102.3 to 105.5	1.54	2.39	6.38 ± 1.14	8.28 ± 2.9	15.5 ± 1.46	3.58 ± 0.65	12.8 ± 0.61
CN1CCN(c2ccc(Nc3nc(Nc4ccc(OC(F)(F)F)cc4)c4ncn(CC5CC5)c4n3)cc2)CC1 [Compound 4h, 9-(Cyclopropylmethyl)-N^2-(4-(4-methylpiperazin-1-yl)phenyl)-N^6-(4-(trifluoromethoxy)phenyl)-9H-purine-2,6-diamine]	0.75	18.2 ± 2.05	0.39 ± 0.08	0.6 ± 0.22 µM	161 to 162	–	–	2.9 ± 0.91	2.45 ± 0.09	15 ± 0.92	1.08 ± 0.31	11.7 ± 2.88
